Values quoted from earlier work, collected in US20040052855A1, “Microparticles of biodegradable polymer encapsulating a biologically active substance and sustained release pharmaceutical formulations containing same” (priority 2003, published 2004).

Conditions: in water at 20-25° C.

Row | Compound | solubility in water
1 | CCOC(C)=O [ethyl acetate] | 8.70 % (by weight)
2 | ClCCl [dichloromethane] | 1.32 % (by weight)
